The values that follow come from ChEMBL document CHEMBL1133064, “1-[2-[(Heteroaryloxy)heteroaryl]carbamoyl]indolines: novel and selective 5-HT2C receptor inverse agonists with potential as antidepressant/anxiolytic agents” (Bioorg Med Chem Lett, 2000).

Assay [1] has as its target 5-hydroxytryptamine receptor 2B (Homo sapiens, UniProt P41595). Nature of the assay: Binding affinity towards human cloned 5-HT2B receptor of HEK293 cells by displacement of [3H]5-HT. It counts as cell-based.
The target of assay [2] is Serotonin receptor (2b and 2c) (Homo sapiens) (UniProt P41595+P28335). Nature of the assay: Selectivity expressed as ratio of serotonin 5-HT2C receptor over serotonin 5-HT2B receptor. It counts as protein assay.
The target of assay [3] is 5-hydroxytryptamine receptor 2A (Homo sapiens, UniProt P28223). In words: Binding affinity towards human cloned 5-hydroxytryptamine 2A receptor of HEK293 cells by displacement of [3H]ketanserin. It counts as cell-based.
Assay [4] has as its target Serotonin 2 receptors; 5-HT2a & 5-HT2c (Homo sapiens) (UniProt P28223+P28335). In words: Selectivity expressed as ratio of serotonin 5-HT2C receptor over serotonin 5-HT2A receptor. It is filed as protein assay.
Assay [5] deals with Rattus norvegicus. Nature of the assay: Percent reversal of mCPP induced hypolocomotion after peroral administration at 5 mg/kg in rat. It counts as functional. The note with it: route oral.
Assay [6] concerns the target T1, 5-hydroxytryptamine receptor 2C (Homo sapiens, UniProt P28335).
T1 sequence (P28335 whole entry): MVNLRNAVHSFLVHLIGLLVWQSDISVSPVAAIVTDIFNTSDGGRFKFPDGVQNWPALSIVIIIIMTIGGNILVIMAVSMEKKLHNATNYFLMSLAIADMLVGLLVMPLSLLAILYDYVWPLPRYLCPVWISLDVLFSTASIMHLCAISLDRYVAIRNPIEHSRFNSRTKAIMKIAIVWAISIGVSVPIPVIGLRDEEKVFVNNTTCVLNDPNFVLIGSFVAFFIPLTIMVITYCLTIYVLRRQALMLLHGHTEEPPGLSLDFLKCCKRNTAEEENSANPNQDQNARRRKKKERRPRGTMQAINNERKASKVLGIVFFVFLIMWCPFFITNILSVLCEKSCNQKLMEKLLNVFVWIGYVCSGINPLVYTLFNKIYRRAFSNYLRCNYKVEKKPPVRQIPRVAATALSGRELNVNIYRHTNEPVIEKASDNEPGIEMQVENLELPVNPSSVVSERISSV
In words: Binding affinity towards human cloned 5-hydroxytryptamine 2C receptor of HEK293 cells by displacement of [3H]mesulergine. It is filed as cell-based.

Where only a bound is given, the exact number is not on record here.

Chain of 5-hydroxytryptamine receptor 2A (P28223 whole entry): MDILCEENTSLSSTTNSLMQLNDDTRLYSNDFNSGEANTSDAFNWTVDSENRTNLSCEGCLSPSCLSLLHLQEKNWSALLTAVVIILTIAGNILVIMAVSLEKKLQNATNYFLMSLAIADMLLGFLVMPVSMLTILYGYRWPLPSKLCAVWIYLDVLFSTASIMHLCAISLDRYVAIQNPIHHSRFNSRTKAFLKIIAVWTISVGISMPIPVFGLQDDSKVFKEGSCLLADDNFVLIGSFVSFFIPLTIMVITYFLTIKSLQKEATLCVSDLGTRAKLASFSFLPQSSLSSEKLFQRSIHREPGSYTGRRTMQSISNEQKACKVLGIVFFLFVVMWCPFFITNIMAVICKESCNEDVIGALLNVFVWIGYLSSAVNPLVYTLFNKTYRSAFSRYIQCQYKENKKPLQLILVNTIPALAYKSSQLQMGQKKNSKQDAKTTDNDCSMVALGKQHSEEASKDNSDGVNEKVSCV
Chain of Serotonin 2 receptors; 5-HT2a & 5-HT2c (Homo sapiens) (P28223 whole entry, looked up, one chain of several): as the sequence (P28223 whole entry) above
Chain of 5-hydroxytryptamine receptor 2B (P41595 whole entry): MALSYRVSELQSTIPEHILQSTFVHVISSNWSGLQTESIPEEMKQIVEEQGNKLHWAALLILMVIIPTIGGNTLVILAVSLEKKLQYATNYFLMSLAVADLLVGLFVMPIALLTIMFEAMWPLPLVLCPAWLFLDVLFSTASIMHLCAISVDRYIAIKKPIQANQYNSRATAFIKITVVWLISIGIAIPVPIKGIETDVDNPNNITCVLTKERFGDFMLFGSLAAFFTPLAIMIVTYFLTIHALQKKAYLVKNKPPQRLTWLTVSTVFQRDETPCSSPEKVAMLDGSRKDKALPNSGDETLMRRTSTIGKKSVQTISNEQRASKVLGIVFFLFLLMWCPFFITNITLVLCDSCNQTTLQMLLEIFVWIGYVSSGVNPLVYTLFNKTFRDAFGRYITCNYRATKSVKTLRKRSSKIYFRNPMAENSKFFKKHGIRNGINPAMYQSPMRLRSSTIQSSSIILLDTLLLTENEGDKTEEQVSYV

With `CSc1cc2c(cc1C(F)(F)F)N(C(=O)Nc1ccc(Oc3cccnc3C)nc1)CC2`, the Ki in assay [1] was 0.0398 µM; in assay [3], 0.251 µM; in assay [6], 0.000398 µM. The Selectivity in assay [2] worked out at 100; in assay [4] it was 630. Besides, the Reversal in assay [5] stood at 31%.

For the compound `Cc1cc2c(cc1F)N(C(=O)Nc1ccc(Oc3cccnc3C)nc1)CC2`, the Ki in assay [1] was 0.158 µM; in assay [3], 0.794 µM; in assay [6], 0.00158 µM. The Selectivity amounted to 100 in assay [2] and 500 in assay [4]. Moreover, the Reversal in assay [5] is reported as 46%.

As for `Cc1ncccc1Oc1ccc(NC(=O)N2CCc3ccc(C(F)(F)F)cc32)cn1`, the inhibition constant Ki in assay [1] was 0.398 µM; in assay [3], 0.158 µM; in assay [6], 0.00501 µM. Besides, the Selectivity was 80 in assay [2] and 30 in assay [4].

On to `Cc1ccc2c(c1Br)CCN2C(=O)Nc1ccc(Oc2cccnc2C)nc1`, for which the values for the inhibition constant Ki in assay [1], in assay [3] and in assay [6] were 0.251 µM, > 1 µM and 0.00158 µM, respectively. For the same compound, the Selectivity is 160 in assay [2] and > 630 in assay [4]. Further, the Reversal in assay [5] was 0%.

Turning to `CCCc1ncccc1Oc1ccc(NC(=O)N2CCc3cc(C)c(Cl)cc32)cn1`, the inhibitory constant (Ki) in assay [1] is 0.1 µM; in assay [3] it was 0.158 µM; in assay [6], 0.00158 µM. Further, the Selectivity turned out to be 60 in assay [2] and 100 in assay [4]. Besides, in assay [5], the Reversal is recorded as 18%.

Take `Cc1cc2c(cc1Cl)N(C(=O)Nc1ccc(Oc3cnccc3Cl)nc1)CC2`: the Ki in assay [1] is 0.0126 µM; in assay [3], 0.0158 µM; in assay [6], 0.000501 µM. Further, the Selectivity came out at 25 in assay [2] and 30 in assay [4].

With `COc1cc2c(cc1C(F)(F)F)N(C(=O)Nc1ccc(Oc3cccnc3C)nc1)CC2`, the Selectivity turned out to be 80 in assay [2] and 1300 in assay [4].

`Cc1ncccc1Oc1ccc(NC(=O)N2CCc3cc(Br)ccc32)cn1`: the inhibition constant (Ki) in assay [1] is 0.631 µM; in assay [3] it was > 3.98 µM; in assay [6], 0.00316 µM. For the same compound, the figures for the Selectivity in assay [2] and in assay [4] were 200 and > 1300, respectively. Also, the Reversal in assay [5] is on record as 10%.

For `CCc1cc2c(cc1C(F)(F)F)N(C(=O)Nc1ccc(Oc3cccnc3C)nc1)CC2`, the inhibition constant Ki was 0.126 µM in assay [1], 0.501 µM in assay [3] and 0.00251 µM in assay [6]. The Selectivity in assay [2] came to 50; in assay [4], 200. The Reversal in assay [5] was 12%.

With `Cc1cc2c(cc1Br)N(C(=O)Nc1ccc(Oc3cccnc3C)nc1)CC2`, the Ki in assay [1] was 0.0631 µM; in assay [3], 0.158 µM; in assay [6], 0.000794 µM. Further, the Selectivity came to 80 in assay [2] and 200 in assay [4]. The Reversal in assay [5] was 49%.

As to `Cc1cc2c(cc1Cl)N(C(=O)Nc1ccc(Oc3cnccc3C)nc1)CC2`, the figures for the inhibition constant (Ki) in assay [1], in assay [3] and in assay [6] were 0.0316 µM, 0.00794 µM and 0.001 µM, respectively. Besides, the Selectivity in assay [2] amounted to 30; in assay [4], 8.

As for `Cc1cc2c(cc1C(F)(F)F)N(C(=O)Nc1ccc(Oc3cncnc3C)nc1)CC2`, the Ki is 0.0126 µM in assay [1], 0.0794 µM in assay [3] and 0.002 µM in assay [6]. Moreover, the Selectivity was found to be 6 in assay [2] and 40 in assay [4].

As for `Cc1ncccc1Oc1ccc(NC(=O)N2CCc3cc(I)ccc32)cn1`, the inhibition constant Ki in assay [1] was 0.316 µM; in assay [3], 1.58 µM; in assay [6], 0.00316 µM. Besides, the figures for the Selectivity in assay [2] and in assay [4] were 100 and 500, respectively. The Reversal in assay [5] is recorded as 14%.

Consider `Cc1ncccc1Oc1ccc(NC(=O)N2CCc3cc(Cl)c(Cl)cc32)cn1`, for which the Ki in assay [1] was 0.316 µM; in assay [3] it was 0.251 µM; in assay [6], 0.002 µM. In addition, the Selectivity amounted to 160 in assay [2] and 130 in assay [4]. In addition, in assay [5], the Reversal was 32%.

`Cc1ncccc1Oc1ccc(NC(=O)N2CCc3ccc(Cl)cc32)cn1`: the inhibition constant (Ki) is 0.794 µM in assay [1], 0.316 µM in assay [3] and 0.00398 µM in assay [6]. Further, the Selectivity in assay [2] is 200; in assay [4], 80. In assay [5], the Reversal was determined as 3%.

`Cc1ncccc1Oc1ccc(NC(=O)N2CCc3cc(Cl)ccc32)cn1`: the Ki in assay [1] was 2 µM; in assay [3], > 10 µM; in assay [6] it was 0.00631 µM. Further, the Selectivity in assay [2] was 320; in assay [4], > 1600. Moreover, in assay [5], the Reversal came out at 40%.

With `Cc1cc2c(cc1Cl)N(C(=O)Nc1ccc(Oc3cccnc3C)nc1)CC2`, the Selectivity in assay [2] came out at 100; in assay [4] it was 160.

On to `Cc1ncccc1Oc1ccc(NC(=O)N2CCc3cc(F)c(Cl)cc32)cn1`, for which the Ki was 0.631 µM in assay [1], 0.501 µM in assay [3] and 0.00631 µM in assay [6]. Moreover, the Selectivity in assay [2] came to 100; in assay [4], 80. In addition, the Reversal in assay [5] was determined as 16%.

As for `Cc1ncccc1Oc1ccc(NC(=O)N2CCc3cc(F)ccc32)cn1`, the inhibitory constant (Ki) in assay [1] is 5.01 µM; in assay [3] it was > 10 µM; in assay [6] it was 0.0398 µM. Moreover, the figures for the Selectivity in assay [2] and in assay [4] were 130 and > 250, respectively. Moreover, in assay [5], the Reversal was 4%.

Consider `Cc1cc2c(cc1Cl)CCN2C(=O)Nc1ccc(Oc2cccnc2C)nc1`, for which the Ki in assay [1] was 0.126 µM; in assay [3], 0.158 µM; in assay [6], 0.00126 µM. The Selectivity was determined as 100 in assay [2] and 130 in assay [4]. In addition, the Reversal in assay [5] stood at 7.3%.

As for `Cc1ncccc1Oc1ccc(NC(=O)N2CCc3c(Cl)cccc32)cn1`, the Ki in assay [1] was 2.51 µM; in assay [3], > 10 µM; in assay [6], 0.0158 µM. Moreover, the Selectivity in assay [2] was 160; in assay [4], > 630. Moreover, the Reversal in assay [5] amounted to 6%.

In the case of `Cc1ncccc1Oc1ccc(NC(=O)N2CCc3c(Br)cccc32)cn1`, the Ki in assay [1] was > 2 µM; in assay [3], > 6.31 µM; in assay [6], 0.0158 µM. Moreover, the results for the Selectivity in assay [2] and in assay [4] were > 130 and > 400, respectively. Besides, the Reversal in assay [5] is on record as 3%.

For `Cc1ncccc1Oc1ccc(NC(=O)N2CCc3ccccc32)cn1`, the inhibitory constant (Ki) is 2 µM in assay [1], > 10 µM in assay [3] and 0.1 µM in assay [6]. For the same compound, the Selectivity in assay [2] is 20; in assay [4], > 100.

Regarding `Cc1ncccc1Oc1ccc(NC(=O)N2CCc3c2cccc3C(F)(F)F)cn1`, the inhibition constant Ki was > 10 µM in assay [1], > 10 µM in assay [3] and 0.2 µM in assay [6]. Moreover, the Selectivity in assay [2] and in assay [4] was > 50 throughout.

With `Cc1cc2c(cc1Cl)N(C(=O)Nc1ccc(Oc3cccnc3C(C)C)nc1)CC2`, the inhibitory constant (Ki) in assay [1] was 0.2 µM; in assay [3], 0.794 µM; in assay [6], 0.126 µM. In addition, the Selectivity in assay [2] is 2; in assay [4], 6.

With `COc1cc2c(cc1C(F)(F)F)N(C(=O)Nc1cnc(Oc3cccnc3C)cc1C)CC2`, the values for the Ki in assay [1], in assay [3] and in assay [6] were 0.251 µM, 0.631 µM and 0.2 µM, respectively. The results for the Selectivity in assay [2] and in assay [4] were 1.3 and 3, respectively.
